Values quoted from earlier work, collected in patent publication US6288040A, “Medicament excipient particles for tissue-specific application of a medicament” (DSS Drug Delivery Service Gesellschaft zur Forderung der …, priority 1997, dated 2001).
Non-standard residues stand in square brackets, D forms with d. No end group written: not given here.

Test system: mice
Conditions: free dalargin, high dosage 20 mg/kg

Tyr-D-Ala-Gly-Phe-Leu-Arg (Y[dA]GFLR) [dalargin, hexapeptide, leu-enkephalin-analogon, opioid receptor agonist]
analgesic effect after i.v. administration of dalargin: does not lead to an analgesic effect
